Reference: ChEMBL document CHEMBL1121476, “Diaryl amidine derivatives as oncornaviral DNA polymerase inhibitors” (J Med Chem, 1980)
Values after ≈ are worked out from the molar mass of the structure shown.

Tested on: Nucleic Acid
Assay: Compound was evaluated for 50% inhibitory dose against oncornaviral DNA polymerase activity of moloney murine leukemia virus
Format: functional

`N=C(N)c1ccc(/N=N/Nc2ccc(C(=N)N)cc2)cc1` was tested. Which ID50 did it give?
Its ID50 is 11 µg/mL (≈ 39.1 µM).

Biological target: Gag-Pol polyprotein (Moloney murine leukemia virus isolate Shinnick) (UniProt P03355)
Description: Inhibitory dose against oncornaviral DNA polymerase activity of moloney murine leukemia virus

How did the ID50 turn out when `C(/C=C/c1cc2cc(C3=NCCN3)ccc2o1)=C\c1ccc(C2=NCCN2)cc1` was run?
The ID50 was 4 µg/mL (≈ 10.5 µM).

For `N=C(N)Nc1ccc(-c2cc3ccc(NC(=N)N)cc3s2)cc1`, which ID50 is on record?
The ID50 was 6 µg/mL (≈ 18.5 µM).

With `N=C(N)Nc1ccc(-c2cc3cc(NC(=N)N)ccc3o2)cc1` as the compound, how does the ID50 read?
Its ID50 is 8 µg/mL (≈ 25.9 µM).

How did the ID50 turn out when `N=C(N)c1ccc2oc(/C=C/c3cc4ccc(C(=N)N)cc4o3)cc2c1` was run?
Its ID50 is 1.2 µg/mL (≈ 3.48 µM).

For `CC(Cc1cc2cc(C(=N)N)ccc2o1)c1cc2cc(C(=N)N)ccc2o1` (centres undefined), which ID50 is on record?
The ID50 was 15 µg/mL (≈ 41.6 µM).

With `C(=C\c1cc2ccc(C3=NCCN3)cc2[nH]1)/c1ccc(Oc2ccc(C3=NCCN3)cc2)cc1` as the compound, how does the ID50 read?
The ID50 was 1.6 µg/mL (≈ 3.58 µM).

Which ID50 does the source give for `N=C(N)c1ccc(/C=C/C=C/C=C/c2cc3cc(C(=N)N)ccc3o2)cc1` here?
The ID50 was 1.6 µg/mL (≈ 4.49 µM).

With `Cc1c(/C=C/c2oc3ccc(C(=N)N)cc3c2C)oc2ccc(C(=N)N)cc12` as the compound, how does the ID50 read?
Its ID50 is 8 µg/mL (≈ 21.5 µM).

With `N=C(N)c1ccc(NC(=O)c2cc3cc(C(=N)N)ccc3o2)cc1` as the compound, how does the ID50 read?
Its ID50 is 7.5 µg/mL (≈ 23.3 µM).

With `c1cc(-c2cc3cc(C4=NCCN4)ccc3s2)ccc1C1=NCCN1` as the compound, how does the ID50 read?
The ID50 was 2.8 µg/mL (≈ 8.08 µM).

With `CCN(CC)CCOc1ccc2c(c1)C(=O)c1cc(OCCN(CC)CC)ccc1-2` as the compound, how does the ID50 read?
The ID50 was 75 µg/mL (≈ 183 µM).

With `N=C(N)c1ccc2oc(/C=C/c3cc4cc(C(=N)N)ccc4s3)cc2c1` as the compound, how does the ID50 read?
Its ID50 is 4 µg/mL (≈ 11.1 µM).

`N=C(N)c1ccc(-c2sc3ccc(C(=N)N)cc3c2N)cc1` was tested. Which ID50 did it give?
The ID50 was 8 µg/mL (≈ 25.9 µM).

`N=C(N)c1ccc2[nH]c(/C=C/c3nc4cc(C(=N)N)ccc4[nH]3)nc2c1` was tested. Which ID50 did it give?
Its ID50 is 100 µg/mL (≈ 290 µM).

With `N=C(N)c1ccc2oc(C(=O)Nc3ccc(C4=NCCN4)cc3)cc2c1` as the compound, how does the ID50 read?
Its ID50 is 10 µg/mL (≈ 28.8 µM).

For `c1cc(-c2cc3ccc(C4=NCCN4)cc3s2)ccc1C1=NCCN1`, which ID50 is on record?
Its ID50 is 1.2 µg/mL (≈ 3.46 µM).

`N=C(N)c1ccc(-c2cc3ccc(C(=N)N)cc3s2)cc1` was tested. Which ID50 did it give?
Its ID50 is 4 µg/mL (≈ 13.6 µM).

Which ID50 does the source give for `N=C(N)c1ccc2oc(/C=C/c3cc4ccc(C(=N)N)cc4[nH]3)cc2c1` here?
The ID50 was 1.1 µg/mL (≈ 3.2 µM).

Which ID50 does the source give for `N=C(N)c1ccc2oc(CCc3cc4cc(C(=N)N)ccc4o3)cc2c1` here?
The ID50 was 12 µg/mL (≈ 34.6 µM).

Which ID50 does the source give for `N=C(N)c1ccc2oc(-c3c[nH]c(-c4cc5cc(C(=N)N)ccc5o4)n3)cc2c1` here?
The ID50 was 2 µg/mL (≈ 5.2 µM).

`CN(C)/C=N/c1ccc(-c2cc3cc(/N=C/N(C)C)ccc3o2)cc1` was tested. Which ID50 did it give?
Its ID50 is 40 µg/mL (≈ 120 µM).

How did the ID50 turn out when `N=C(N)c1cccc(-c2cc3ccc(C(=N)N)cc3[nH]2)c1` was run?
Its ID50 is 8 µg/mL (≈ 28.8 µM).

`C(=C\c1cc2cc(C3=NCCN3)ccc2o1)/c1ccc(Oc2ccc(C3=NCCN3)cc2)cc1` was tested. Which ID50 did it give?
The ID50 was 9 µg/mL (≈ 20.1 µM).

How did the ID50 turn out when `N=C(N)c1ccc(N/N=N/c2ccc(-c3cc4cc(C(=N)N)ccc4o3)cc2)cc1` was run?
Its ID50 is 1.3 µg/mL (≈ 3.27 µM).

`N=C(N)c1ccc(CCc2cc3cc(C(=N)N)ccc3o2)cc1` was tested. Which ID50 did it give?
Its ID50 is 120 µg/mL (≈ 392 µM).

Which ID50 does the source give for `N=C(N)N/N=C/c1ccc2cc(-c3ccc(/C=N/N=C(N)N)cc3)sc2c1` here?
The ID50 was 2 µg/mL (≈ 5.28 µM).

Which ID50 does the source give for `N=C(N)c1ccc(/C=C/C=C/c2cc3cc(C(=N)N)ccc3o2)cc1` here?
The ID50 was 0.9 µg/mL (≈ 2.72 µM).

How did the ID50 turn out when `N=C(N)c1cccc(-c2cc3ccc(C(=N)N)cc3s2)c1` was run?
The ID50 was 8 µg/mL (≈ 27.2 µM).

How did the ID50 turn out when `N=C(N)c1ccc2[nH]c(/C=C/c3cc4cc(C(=N)N)ccc4o3)cc2c1` was run?
Its ID50 is 1.4 µg/mL (≈ 4.08 µM).

With `N=C(N)c1ccc2cc(/C=C/c3cc4ccc(C(=N)N)cc4o3)oc2c1` as the compound, how does the ID50 read?
Its ID50 is 1.6 µg/mL (≈ 4.65 µM).

How did the ID50 turn out when `N=C(N)c1ccc(-c2ccc(-c3ccc(C(=N)N)cc3)[nH]2)cc1` was run?
The ID50 was 6.5 µg/mL (≈ 21.4 µM).

`N=C(N)c1ccc2[nH]c(-c3cc4cc(C(=N)N)ccc4o3)cc2c1` was tested. Which ID50 did it give?
The ID50 was 0.9 µg/mL (≈ 2.84 µM).

`c1cc(C2=NCCN2)ccc1Oc1ccc(-c2cc3ccc(C4=NCCN4)cc3[nH]2)cc1` was tested. Which ID50 did it give?
The ID50 was 1.4 µg/mL (≈ 3.32 µM).

Which ID50 does the source give for `N=C(N)c1ccc(C2Cc3cc(C(=N)N)ccc3S2(=O)=O)cc1` (centres undefined) here?
Its ID50 is 90 µg/mL (≈ 274 µM).

With `c1cc(-c2cc3ccc(C4=NCCN4)cc3[nH]2)ccc1C1=NCCN1` as the compound, how does the ID50 read?
Its ID50 is 6 µg/mL (≈ 18.2 µM).

Which ID50 does the source give for `N=C(N)c1ccc(/C=C/c2cc3cc(C(=N)N)ccc3o2)cc1` here?
The ID50 was 8 µg/mL (≈ 26.3 µM).

With `N=C(N)c1ccc(-c2ccc(-c3ccc(C(=N)N)cc3)o2)cc1` as the compound, how does the ID50 read?
The ID50 was 6 µg/mL (≈ 19.7 µM).

`C(=C\c1cc2cc(C3=NCCN3)ccc2o1)/c1ccc(C2=NCCN2)cc1` was tested. Which ID50 did it give?
The ID50 was 6 µg/mL (≈ 16.8 µM).

Which ID50 does the source give for `N=C(N)c1ccc(-c2ccc(-c3ccc(C(=N)N)cc3)s2)cc1` here?
The ID50 was 1.2 µg/mL (≈ 3.75 µM).

Which ID50 does the source give for `N=C(N)c1cccc(-c2cc3cc(C(=N)N)ccc3[nH]2)c1` here?
The ID50 was 4 µg/mL (≈ 14.4 µM).

`N=C(N)c1ccc(-c2cc3ccc(C(=N)N)cc3[nH]2)cc1` was tested. Which ID50 did it give?
The ID50 was 5 µg/mL (≈ 18 µM).

How did the ID50 turn out when `C(/C=C/c1cc2cc(C3=NCCN3)ccc2o1)=C\c1cc2cc(C3=NCCN3)ccc2o1` was run?
Its ID50 is 1 µg/mL (≈ 2.37 µM).

`N=C(N)c1ccc(/C=C/c2ccc(C(=N)N)cc2)cc1` was tested. Which ID50 did it give?
Its ID50 is 12 µg/mL (≈ 45.4 µM).

Which ID50 does the source give for `N=C(N)c1ccc(/C=C/c2cc3ccc(C(=N)N)cc3[nH]2)cc1` here?
Its ID50 is 6 µg/mL (≈ 19.8 µM).

With `N=C(N)c1ccc(-c2[nH]c3cc(C(=N)N)ccc3c2N)cc1` as the compound, how does the ID50 read?
Its ID50 is 12 µg/mL (≈ 41 µM).

Which ID50 does the source give for `N=C(N)c1ccc(Oc2ccc(/C=C/c3cc4cc(C(=N)N)ccc4o3)cc2)cc1` here?
The ID50 was 14 µg/mL (≈ 35.3 µM).

Which ID50 does the source give for `N=C(N)c1ccc2cc(C(=N)N)[nH]c2c1` here?
Its ID50 is 70 µg/mL (≈ 348 µM).

`C/C(=C\c1cc2cc(C(=N)N)ccc2o1)c1cc2cc(C(=N)N)ccc2o1` was tested. Which ID50 did it give?
Its ID50 is 14 µg/mL (≈ 39.1 µM).

With `N=C(N)c1cccc(-c2cc3cc(C(=N)N)ccc3s2)c1` as the compound, how does the ID50 read?
Its ID50 is 6 µg/mL (≈ 20.4 µM).

With `N=C(N)c1ccc2oc(-c3ccc(N)cc3)cc2c1` as the compound, how does the ID50 read?
Its ID50 is 270 µg/mL (≈ 1070 µM).

For `N=C(N)c1ccc(Oc2ccc(-c3cc4ccc(C(=N)N)cc4[nH]3)cc2)cc1`, which ID50 is on record?
Its ID50 is 250 µg/mL (≈ 677 µM).

`N=C(N)c1ccc(-c2c[nH]c(-c3ccc(C(=N)N)cc3)n2)cc1` was tested. Which ID50 did it give?
The ID50 was 10 µg/mL (≈ 32.9 µM).

Which ID50 does the source give for `N=C(N)Nc1ccc(-c2cc3cc(NC(=N)N)ccc3s2)cc1` here?
The ID50 was 11 µg/mL (≈ 33.9 µM).

Which ID50 does the source give for `N=C(N)c1ccc(OCCCCCOc2ccc(C(=N)N)cc2)cc1` here?
The ID50 was 100 µg/mL (≈ 294 µM).

For `C/C(=C\c1cc2cc(C(=N)N)ccc2o1)c1ccc(C(=N)N)cc1`, which ID50 is on record?
The ID50 was 4 µg/mL (≈ 12.6 µM).

`N=C(N)c1ccc2sc(/C=C/c3cc4cc(C(=N)N)ccc4s3)cc2c1` was tested. Which ID50 did it give?
Its ID50 is 11 µg/mL (≈ 29.2 µM).

With `N=C(N)c1ccc(N/N=C/c2cc3cc(C(=N)N)ccc3o2)cc1` as the compound, how does the ID50 read?
Its ID50 is 7.5 µg/mL (≈ 23.4 µM).

`N=C(N)c1ccc2c(c1)[nH]c1c3cc(C(=N)N)ccc3sc21` was tested. Which ID50 did it give?
The ID50 was 1.2 µg/mL (≈ 3.9 µM).

For `O=C(Nc1ccc(C2=NCCN2)cc1)c1ccc(C(=O)Nc2ccc(C3=NCCN3)cc2)cc1`, which ID50 is on record?
Its ID50 is 200 µg/mL (≈ 442 µM).

With `N=C(N)c1ccc(-c2cc3cc(C(=N)N)ccc3s2)cc1` as the compound, how does the ID50 read?
Its ID50 is 5 µg/mL (≈ 17 µM).

Which ID50 does the source give for `CC[n+]1c(-c2ccccc2)c2cc(N)ccc2c2ccc(N)cc21` here?
Its ID50 is 1.2 µg/mL.

How did the ID50 turn out when `C(=C\c1cc2cc(C3=NCCN3)ccc2o1)/c1cc2cc(C3=NCCN3)ccc2o1` was run?
The ID50 was 1.1 µg/mL (≈ 2.77 µM).

`N=C(N)c1ccc2oc(/C=C/C=C/c3cc4cc(C(=N)N)ccc4o3)cc2c1` was tested. Which ID50 did it give?
The ID50 was 3 µg/mL (≈ 8.1 µM).

With `N=C(N)c1ccc2oc(/C=C/C=C/C=C/c3cc4cc(C(=N)N)ccc4o3)cc2c1` as the compound, how does the ID50 read?
Its ID50 is 1.6 µg/mL (≈ 4.04 µM).

With `N=C(N)c1ccc(Oc2ccc(/C=C/c3cc4ccc(C(=N)N)cc4[nH]3)cc2)cc1` as the compound, how does the ID50 read?
The ID50 was 1.4 µg/mL (≈ 3.54 µM).

Which ID50 does the source give for `N=C(N)c1cccc(Oc2ccc(-c3cc4ccc(C(=N)N)cc4[nH]3)cc2)c1` here?
Its ID50 is 6 µg/mL (≈ 16.2 µM).

For `N=C(N)c1ccc(-c2nnc(-c3ccc(C(=N)N)cc3)o2)cc1`, which ID50 is on record?
Its ID50 is 28 µg/mL (≈ 91.4 µM).

How did the ID50 turn out when `c1cc(Oc2ccc(-c3cc4ccc(C5=NCCN5)cc4[nH]3)cc2)cc(C2=NCCN2)c1` was run?
Its ID50 is 3 µg/mL (≈ 7.12 µM).
